In US8324380B2, “Amino-heteroaryl-containing prokineticin 1 receptor antagonists” (Janssen Pharmaceutica NV, priority 2007, dated 2012):
Where two headings read alike, the source gives them in different places.

How the values were obtained:
[1] = target: T1, GPR73 (prokineticin 1 receptor) (Homo sapiens, UniProt Q8TCW9); test: PK1 functional assay: Ca2+ mobilization on the FLIPR; type: cell-based; conditions: for IC50: HEK 293 GPR73 cells, read-out: Ca^2+ Mobilization IC50; for inhibition at 10 µM: read-out: Ca^2+ Mobilization % Inh @10 µM
T1 construct: expressed in transfected cells; host or cells: HEK 293
Description: At a time of 24 h prior to running the assay, in cell culture media (DMEM containing high Glucose and L-glutamine, 10% FBS, 1% Pen/Streptomycin, 1% Sodium Pyruvate, 20 mM HEPES, Zeocin 200 mg/L), 100 µL of 1.3*10^6/ml HEK 293 GPR73 (prokineticin 1 receptor) expressing cells were plated in a 96 well poly-d-lysine coated plate (Costar), and incubated at 37° C. and 5% CO2. On the day in which the assay was run, the media was removed and 200 µL of 5× Calcium Plus Dye (Molecular Devices) which was previously resuspended with 200 mL of assay buffer [HBSS w/Ca^2+ and Mg^2+ w/o phenol red, 20 mM HEPES, 0.1% BSA, 10 mL probenecid (710 mg probenecid in 5 mL of 1N NaOH, to which was then added 5 mL HBSS containing 20 mM HEPES)] was added to each well of the 96-well plate. The plate was incubated at 37° C. and 5% CO2 for 30 min in dark. The plate was removed and allowed to reach RT for 15 min in the dark. The assay was then run on the FLIPR. In Brief: base line read for 1 min, compound added (25 μL) and incubated for 4 min, 15 seconds, PK1 ligand preparation added (25 μL) for a final concentration of a previously determined EC50 and fluorescence was counted for 1 min, 45 seconds. Baseline is described as the amount of relative fluorescence read when buffer alone is added to cells. Baseline was subtracted from all wells. Percent of control was calculated as follows: (Baseline subtracted well value is divided by baseline subtracted max value)*100. Percent inhibition is 100 minus the percent of control value.
The IC50 is defined as the amount of a given compound required to inhibit 50% of the maximum signal that is generated by the concentration of PK1 preparation used in our assay. IC50 values were calculated using GraphPad Prism.

PK1 receptor = target: T2, PK1 receptor (Rattus norvegicus, UniProt Q8R416); test: Suppression of PK1 evoked increase in Isc in isolated rat ileum mucosa; conditions: test compound 1 µM, 15 min; PK1 10 and 100 nM cumulative
T2 construct: The PK1 evoked increase in Isc requires the presence of endogenous PK1 receptors; from tissue; host or cells: rat ileum mucosa (Ussing-type chambers)
Description: Methodology. The basic methodology for Ussing-type ion flux chambers used in these studies was the same as that described in detail above with the following modifications to the experimental protocol. […] The responses to two sequential EFS were used to gauge tissue viability and comparability of the responses of individual tissues from each rat and between rats. Tissue conductance was measured at periodic intervals as changes in the amplitudes of brief short-circuit current responses evoked by application of 1 mV amplitude bi-polar pulses from a pulse generator using Ohm's Law. Three to four tissues from each rat were studied. The tissues from a given animal were grouped and assigned accordingly: one control tissue which received only vehicle followed by two consecutive doses of PK-1 ligand added in a cumulative fashion to the basolateral surface of the tissue; the remaining two to three tissues from the same animal were assigned to be exposed to a given PK-1 receptor antagonist (e.g., 3-4 tissues from 1 rat: Control, Antagonist1, Antagonist2, and/or Antagonist3). Test compound was added to the basolateral tissue side reservoir at a final concentration of 1 µM and allowed a 15 minute incubation period prior to challenge with the PK1 peptide. […]

rat ileum mucosa = test: Carbachol-evoked Isc in rat ileum mucosa (selectivity test); conditions: carbachol at two concentrations, ascending cumulative, serosal side
[2] = test system: isolated rat ileum mucosa
rat ileal tissues = test: PK1-evoked short-circuit current (Isc) in rat ileum mucosa, Ussing-type flux chambers
[3] = test system: ileum mucosal tissues from PK1 receptor knock-out mice; test: PK1-evoked Isc in ileum mucosal tissues from PK1 receptor knock-out mice; conditions: exogenous PK1 peptide

T1 sequence (Q8TCW9 whole entry, species assumed): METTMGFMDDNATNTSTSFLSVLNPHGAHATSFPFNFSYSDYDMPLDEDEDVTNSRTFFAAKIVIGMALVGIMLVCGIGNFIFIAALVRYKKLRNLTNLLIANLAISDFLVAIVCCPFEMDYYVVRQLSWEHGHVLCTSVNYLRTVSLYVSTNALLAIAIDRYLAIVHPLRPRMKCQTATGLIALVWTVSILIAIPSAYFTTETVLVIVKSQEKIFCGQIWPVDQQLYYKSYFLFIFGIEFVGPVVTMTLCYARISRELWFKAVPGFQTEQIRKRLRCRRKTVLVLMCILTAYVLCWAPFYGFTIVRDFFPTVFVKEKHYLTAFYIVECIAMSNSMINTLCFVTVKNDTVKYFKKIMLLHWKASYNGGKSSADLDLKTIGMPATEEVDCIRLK
T2 sequence (Q8R416 whole entry): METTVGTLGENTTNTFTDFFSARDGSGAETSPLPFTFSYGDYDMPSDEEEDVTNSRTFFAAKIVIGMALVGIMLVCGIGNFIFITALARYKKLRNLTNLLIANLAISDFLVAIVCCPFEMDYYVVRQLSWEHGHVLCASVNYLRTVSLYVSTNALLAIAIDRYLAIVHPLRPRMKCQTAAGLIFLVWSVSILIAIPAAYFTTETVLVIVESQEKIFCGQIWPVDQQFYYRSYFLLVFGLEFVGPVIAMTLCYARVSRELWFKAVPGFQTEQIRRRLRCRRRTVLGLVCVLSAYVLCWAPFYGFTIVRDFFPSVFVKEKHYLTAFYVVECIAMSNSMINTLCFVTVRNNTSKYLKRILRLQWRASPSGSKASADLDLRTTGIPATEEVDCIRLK

COc1ccc(Cn2c(NCCn3c(N)nc4ccc(C)cc43)nc(=O)n(Cc3ccc(F)cc3)c2=O)cc1 [Cpd 3, 6-[2-(2-Amino-6-methyl-benzoimidazol-1-yl)-ethylamino]-3-(4-fluoro-benzyl)-1-(4-methoxy-benzyl)-1H-[1,3,5]triazine-2,4-dione]
Ca^2+ Mobilization % Inh @10 µM ([1]; 10 µM, (further determination)): 94% | Ca^2+ Mobilization % Inh @10 µM ([1]; 10 µM): 96% | IC50 ([1]; IC50 (further determination)): 29 nM | IC50 [1]: 8 nM | suppression of the PK1 evoked increase in Isc (PK1 receptor): suppresses | suppression of the pro-secretory effect of carbachol (rat ileum mucosa): failed to suppress | suppression of Cholera toxin induced increase in Isc (figure legends) [2]: suppresses | suppression of the sustained increase in baseline Isc evoked by Cholera toxin [2]: 50-60% | effect versus increased baseline Isc evoked by Vibrio cholera toxin ([2]; 1 μM): no significant effect

CN1[C@@H]2CC[C@H]1C[C@@H](OC(=O)C(CO)c1ccccc1)C2 (stereo partly drawn) [Atropine, reference compound]
blockade of the pro-secretory effect of PK1 (rat ileal tissues): not blocked

NC1=N[C@H](O)[C@H]2[C@H]3O[C@]4(O)O[C@@H]([C@@H](O)[C@@]2(N1)[C@@H]4O)[C@]3(O)CO [Tetrodotoxin, reference compound]
blockade of the pro-secretory effect of PK1 (rat ileal tissues): not blocked

Nc1nc2cccc(F)c2n1CCNc1nc(=O)n(Cc2ccc(F)cc2)c(=O)n1Cc1ccc(OC(F)F)cc1 [Cpd 32]
inhibition at 10 µM ([1]; 10 µM): 94% | IC50 [1]: 132 nM

NC1=Nc2cccc(Cl)c2CN1CCNc1nc(=O)n(Cc2ccc(F)cc2)c(=O)n1Cc1ccc(OC(F)F)cc1 [Cpd 42]
inhibition at 10 µM ([1]; 10 µM): 101% | IC50 [1]: 63 nM

COc1ccc(Cn2c(NCCc3cnc(N)[nH]3)nc(=O)n(Cc3ccc4c(c3)CCO4)c2=O)cc1 [Cpd 62]
inhibition at 10 µM ([1]; 10 µM): 97% | IC50 [1]: 241 nM

Nc1nc2c(F)cc(F)cc2n1CCNc1nc(=O)n(Cc2ccc(F)cc2)c(=O)n1Cc1ccc(OC(F)(F)F)cc1 [Cpd 36]
inhibition at 10 µM ([1]; 10 µM): 50% | IC50 [1]: 8240 nM

B1: PK1: Recombinant human prokineticin-1 expressed in HEK 293 cells; preparation holds full-length ligand and a four C-terminal residue truncated product (protein, UniProt P58294 20-105, looked up)
Prokineticin-1: AVITGACERDVQCGAGTCCAISLWLRGLRMCTPLGREGEECHPGSHKVPFFRKRKHHTCPCLPNLLCSRFPDGRYRCSMDLKNINF
modifications: mixture with C-terminally truncated product
notes: Recombinant human prokineticin-1 expressed in HEK 293 cells; preparation holds full-length ligand and a four C-terminal residue truncated product
change in Isc compared to wild-type littermates [3]: failed to elicit a significant change | effect on tissue conductance (G) (rat ileal tissues): no significant effect | increase in Isc from baseline (rat ileal tissues; 10 nM PK1): 13.5±2. […]A/cm^2 | increase in Isc from baseline (rat ileal tissues; 100 nM PK1): 28.7±2.9 µA/cm^2 | EC50 (rat ileal tissues; read-out: EC50 of PK1-evoked increases in Isc, cumulative concentration-response, basolateral addition): ~8.2 nM
